# Columns and labels:
# [1] = test system: HFF-1 cells; assay: Cell viability of HFF-1 normal cells (CCK-8 cell proliferation assay); assay type: cell-based, human; settings: 72 hours
# Protocol: (§1) Cell in 96-well plates were treated with drugs as indicated, and then incubated with 10 μl/well of CCK-8 (cell counting Kit-8) solution at for 1-2 hours, followed by the measurement of optical density at 450 nm.
# [2] = test system: HeLa cells; assay: Cell viability of HeLa cells (CCK-8 cell proliferation assay); assay type: cell-based; settings: 72 hours
# Protocol: as §1
# [3] = test system: MM.1S cells; assay: Cell viability / proliferation of MM.1S cells (CCK-8); assay type: cell-based; settings: for IC50: Homo sapiens, MM1.S
# Protocol: (§2) For folic acid competitive degradation assay, cells were pretreated with folic acid (F8758, Sigma-Aldrich, 2.5 mM) for 2 hours, followed by the treatment of indicated PROTACs for indicated time. For endocytosis inhibition, cells were pretreated with Pitostop 2 (SML1169, Sigma-Aldrich, 1-30 μM) or MCD (21633, Cayman, 0.03-1 mM) for 12 hours, followed by co-treatment with indicated PROTACs for another 12 hours. For proteasome or E3 ligase inhibition assay, cells were treated with MG132 (BML-P11020, ENZO Life Sciences, 10 μM) or MLN4924 (S7109, SelleckChem, 1 μM) another 12 hours. For GSH-stimulating assay, cells were treated with S-Acetyl-GSH (29624, Cayman, 1 mM) with indicated PROTACs for 12 or 72 hours.
# as §1
# [4] = biological target: Flag-tagged cereblon (CRBN) (Homo sapiens, UniProt Q96SW2); assay: Streptavidin pulldown competition with biotinylated pomalidomide for Flag-CRBN; assay type: binding; settings: for competition with biotinylated-pomalidomide to bind CRBN E3 ubiquitin ligase: caged, inert form, HEK293T cell lysis, 1 hour
# Protocol: Streptavadin pull down assays were performed on cell lysis derived from HEK293T (kidney) cells. Cell lysis was incubated with biotin or biotin-POMA, with or without pomalidomide, FA-S2_POMA or FA-C2-POMA for 1 hour. Additionally, some cell lysates had been pretreated with GSH.
# The streptavidin pulldown assay for biotin-pomalidomide was performed as previous reported. Briefly, Flag-CRBN was expressed in HEK293T cells lysed in PROTAC buffer B (50 mM Tris-HCl pH7.5, 150 mM NaCl and 0.5% NP-40) supplemented with protease inhibitors (Pierce) and phosphatase inhibitors (phosphatase inhibitor cocktail set I and II, Calbiochem). A total of 1 mg of cell lysate was incubated with 10 μl of 10 mM biotin-pomalidomide and 8 μl of streptavidin beads for 1 hour at 4° C. in the absence or presence of pomalidomide or its derivates. Alternatively, Folate-S2-pomalidomide or Folate-C2-pomalidomide were incubated with 5 mM GSH and then subjected to the competition bindingassay. Then, the beads were washed four times with NETN buffer (20 mM Tris-HCl pH 7.5, pH 8.0, 100 mM NaCl, 1 mM EDTA and 0.5% NP-40), before being resolved by SDS-PAGE and immunoblotted with Flag-tag antibody.
# [5] = biological target: T1, IKZF3 (Homo sapiens, UniProt Q9UKT9); assay: Western blotting of IKZF3 in MM.1S cells; assay type: cell-based; settings: FOLR1-positive MM.1S cells, 12 hours
# T1 construct: endogenous in cells; host or cells: MM.1S (also MM.1S-CRBN+/+ and CRBN-/-)
# Protocol: (§3) For folic acid competitive degradation assay, cells were pretreated with folic acid (F8758, Sigma-Aldrich, 2.5 mM) for 2 hours, followed by the treatment of indicated PROTACs for indicated time. […] For proteasome or E3 ligase inhibition assay, cells were treated with MG132 (BML-P11020, ENZO Life Sciences, 10 μM) or MLN4924 (S7109, SelleckChem, 1 μM) another 12 hours.
# (§4) Cells were lysed in EBC buffer (50 mM Tris-HCl pH 7.5, 120 mM NaCl and 0.5% NP-40) supplemented with protease inhibitors (Pierce) and phosphatase inhibitors (phosphatase inhibitor cocktailset I and II, Calbiochem). The protein concentrations of the lysates were measured using the Bio-Rad protein assay reagent on a Beckman Coulter DU-800 spectrophotometer. The lysates (40 μg protein) werethen resolved by 10% SDS-olyacrylamide gel electrophoresis (PAGE) at 130 V for 80 min and immunoblotted with indicated antibodies at 4° C. overnight, washed four times with Tris-buffered saline with 0.1% Tween-20 (TBST) buffer, incubated with secondary antibody for 1 hour at room temperature, and then washed 4 times with TBST.
# [6] = biological target: T2, IKZF1 (Homo sapiens, UniProt Q13422+Q96SW2); assay: Western blotting of IKZF1 in SU-DHL-1 cells; assay type: cell-based; settings: FOLR1-positive SU-DHL-1 cells, 12 hours
# T2 construct: endogenous in cells; host or cells: SU-DHL-1
# Protocol: as §4
# [7] = Release of active compound after incubation with DTT in PBS at 37° C., HPLC analysis; assay type: physicochemical; settings: DTT (2 equiv), 37° C. in PBS, HPLC
# Protocol: FA-S2-POMA and the negative control FA-C2-POMA were incubated with dithiothreitol (DTT) under physiological conditions (37° C. in phosphate buffered saline (PBS)) and then subjected to HPLC analysis.
# The effects of these folate caged PROTACS on ALK fusion protein degradation was assessed in cancer cells. FA-S2-MS4048 and FA-C2-MS4048 were incubated with DTT at 37° C. in PBS. […] Furthermore, compared to FA-S2-POMA (FIG. 11B), the release rate of FA-S2-MS4048 is slower.
# [8] = biological target: T3, IKZF3 (Homo sapiens, UniProt Q96SW2+Q9UKT9); assay: Western blotting of IKZF3 in MM.1S cells; assay type: cell-based; design: endogenous in cells; host or cells: MM.1S (also MM.1S-CRBN+/+ and CRBN-/-); settings: for effect on degrading IKZF3 after depletion of endogenous CRBN E3 ubiquitin ligase: CRBN knockout
# Protocol: as §3, §4
# [9] = biological target: T4, BRD4 (Homo sapiens, UniProt O60885); assay: Western blot analysis of BRDs protein levels in HeLa cells; assay type: cell-based
# T4 construct: endogenous in cells; host or cells: HeLa
# [10] = test system: BRDs; assay: Western blot analysis of BRDs in OVCAR-8 ovary cancer cells; assay type: cell-based; settings: OVCAR-8 cells
# Protocol: (§5) Cells were lysed in EBC buffer (50 mM Tris pH 7.5, 120 mM NaCl, 0.5% NP-40) supplemented with protease inhibitors (Pierce) and phosphatase inhibitors (phosphatase inhibitor cocktail set I and II, Calbiochem). The protein concentrations of the lysates were measured using the Bio-Rad protein assay reagent on a Beckman Coulter DU-800 spectrophotometer. The lysates were then resolved by SDS-PAGE and immunoblotted with indicated antibodies.
# as §4
# [11] = test system: SK-MEL-28 cells; assay: Cell viability of SK-MEL-28 cells (CCK-8); assay type: cell-based; settings: 72 hours
# Protocol: as §1
# [12] = test system: MEK1 and MEK2; assay: Western blot analysis of MEK1 and MEK2 levels in HT29 and SK-MEL-28 cells; assay type: cell-based
# Protocol: as §2, §5, §4
# [13] = test system: HT-29 cells; assay: Cell viability of HT-29 cells (CCK-8); assay type: cell-based; settings: 72 hours
# Protocol: as §1
# [14] = biological target: T3, IKZF3; assay: Western blotting of IKZF3 in FOLR1-negative THP-1 cells; assay type: cell-based; design: endogenous in cells; settings: 12 hours
# Protocol: as §4
compound,measurement,setting,value
Cc1ncsc1-c1ccc([C@H](C)NC(=O)[C@@H]2C[C@@H](O)CN2C(=O)[C@@H](NC(=O)COCCCOCCNC(=O)C[C@@H]2N=C(c3ccc(Cl)cc3)c3c(sc(C)c3C)-n3c(C)nnc32)C(C)(C)C)cc1 [ARV-771],IC50,[1],1100 nM
same,IC50,[2],183 nM
"Nc1nc2ncc(CNc3ccc(C(=O)N[C@@H](CCC(=O)NCc4cn(CCCCCCOC(=O)N5C(=O)CCC(N6C(=O)c7cccc(N)c7C6=O)C5=O)nn4)C(=O)O)cc3)nc2c(=O)[nH]1 (stereo partly drawn) [FA-C2-POMA, N^5-((1-(6-((3-(4-amino-1,3-dioxoisoindolin-2-yl)-2,6-dioxopiperidine-1-carbonyl)oxy)hexyl)-1H-1,2,3-triazol-4-yl)methyl)-N^2-(4-(((2-amino-4-oxo-3,4-dihydropteridin-6-yl)methyl)amino)benzoyl)-L-glutamine]",IC50,[3]; 72 hours,62300 nM
same,competition with biotinylated-pomalidomide to bind CRBN E3 ubiquitin ligase,[4],not compete
same,degradation of IKZF3,[5],ineffective in degrading IKZF3
"Nc1nc2ncc(CNc3ccc(C(=O)N[C@@H](CCC(=O)NCc4cn(CCSSCCOC(=O)N5C(=O)CCC(N6C(=O)c7cccc(N)c7C6=O)C5=O)nn4)C(=O)O)cc3)nc2c(=O)[nH]1 (stereo partly drawn) [FA-S2-POMA, N^5-((1-(2-((2-((3-(4-amino-1,3-dioxoisoindolin-2-yl)-2,6-dioxopiperidine-1-carbonyl)oxy)ethyl)disulfanyl)ethyl)-1H-1,2,3-triazol-4-yl)methyl)-N^2-(4-(((2-amino-4-oxo-3,4-dihydropteridin-6-yl)methyl)amino)benzoyl)-L-glutamine]",IC50,[3]; 72 hours,1000 nM
same,potency in inhibiting proliferation after pretreatment with S-Ac-GSH,[3]; S-Ac-GSH 1 mM,significantly increased potency
same,potency for suppression of proliferation with co-treatment of folic acid,"[3]; folic acid co-treatment, 72 hours",significant reduction in potency
same,degradation of IKZF1,[6],degraded IKZF3 or IKZF1
same,release of pomalidomide after addition of DTT,[7],efficient release of pomalidomide
same,competition with biotinylated-pomalidomide to bind CRBN E3 ubiquitin ligase,[4],not compete
same,release of active pomalidomide upon treatment with reducing agent GSH (pulldown),[4]; pretreated with GSH,can release pomalidomide
same,degradation of IKZF3,[5],degraded IKZF3 or IKZF1
same,effect on degrading IKZF3 with co-treatment of folic acid,"[8]; MM.1S cells, 2.5 mM folic acid",effectively antagonized the effect
same,effect on degrading IKZF3 after depletion of endogenous CRBN E3 ubiquitin ligase,[8]; MM.1S cells,completely abolished the effect
same,potency in degrading IKZF3 after pretreatment with S-Ac-GSH,"[8]; MM.1S cells, S-Ac-GSH 1 mM",significantly increased the potentcy
same,effect on degradation of IKZF3 with MG132 or MLN4924,"[8]; MM.1S cells, proteasome inhibitor MG132 or neddylation inhibitor MLN4924",blocked the effect
same,effect on degrading IKZFs with endocytosis inhibitor pitstop 2 or MβCD,[8]; co-treatment with pitstop 2 or methyl-β-cyclodextrin (MβCD),compromised the effect
Cc1ncsc1-c1ccc([C@H](C)NC(=O)[C@@H]2C[C@@H](NC(=O)CCCCn3cc(CNC(=O)CC[C@H](NC(=O)c4ccc(NCc5cnc6nc(N)[nH]c(=O)c6n5)cc4)C(=O)O)nn3)CN2C(=O)[C@@H](NC(=O)COCCCOCCNC(=O)C[C@@H]2N=C(c3ccc(Cl)cc3)c3c(sc(C)c3C)-n3c(C)nnc32)C(C)(C)C)cc1 [Folate-ARV-771N],degrading BRDs,"[9]; HeLa cells, even at 100 nM",incapable of degrading BRDs
same,degradation of BRDs,[10],"but not Folate-ARV-771N, degraded BRDs"
Cc1ncsc1-c1ccc([C@H](C)NC(=O)[C@@H]2C[C@@H](OC(=O)CCCCn3cc(CNC(=O)CC[C@H](NC(=O)c4ccc(NCc5cnc6nc(N)[nH]c(=O)c6n5)cc4)C(=O)O)nn3)CN2C(=O)[C@@H](NC(=O)COCCCOCCNC(=O)C[C@@H]2N=C(c3ccc(Cl)cc3)c3c(sc(C)c3C)-n3c(C)nnc32)C(C)(C)C)cc1 [Folate-ARV-771],effect in degrading BRD4 after pretreatment with endocytosis inhibitor MβCD,[9]; HeLa cells pretreated with MβCD,efficiently blocked the effect
"Cc1ncsc1-c1ccc([C@H](C)NC(=O)[C@@H]2C[C@@H](OC(=O)CCCCn3cc(CNC(=O)CC[C@H](NC(=O)c4ccc(NCc5cnc6nc(N)[nH]c(=O)c6n5)cc4)C(=O)O)nn3)CN2C(=O)[C@@H](NC(=O)CCCCCCCCCCNCCCONC(=O)c2ccc(F)c(F)c2Nc2ccc(I)cc2F)C(C)(C)C)cc1 [Folate-MS432, N^2-(4-(((2-amino-4-oxo-3,4-dihydropteridin-6-yl)methyl)amino)benzoyl)-N^5-((1-(5-(((3R,5S)-1-((S)-2-(11-((3-((3,4-difluoro-2-((2-fluoro-4-iodophenyl)amino)benzamido)oxy)propyl)amino)undecanamido)-3,3-dimethylbutanoyl)-5-(((S)-1-(4-(4-methylthiazol-5-yl)phenyl)ethyl)carbamoyl)pyrrolidin-3-yl)oxy)-5-oxopentyl)-1H-1,2,3-triazol-4-yl)methyl)-L-glutamine]",IC50,[11]; Homo sapiens,390 nM
same,degradation of MEK1 and MEK2,"[12]; HT29 and SK-MEL-28 cells, dose- and time-dependent",degraded MEK1 and MEK2
same,effect in degrading MEK1 and MEK2 after pretreatment of folic acid,"[12]; HT-29 and SK-MEL-28 cells, folic acid pretreatment",blocked the effect
same,degradation of MEK1/2 after pretreatment with VHL ligand Ac-VHL,"[12]; HT-29 cells, Ac-VHL pretreatment",blocked the degradation of MEK1/2
same,IC50,[13]; Homo sapiens,436 nM
"Cc1ncsc1-c1ccc([C@H](C)NC(=O)[C@@H]2C[C@@H](O)CN2C(=O)[C@@H](NC(=O)CCCCCCCCCCNCCCONC(=O)c2ccc(F)c(F)c2Nc2ccc(I)cc2F)C(C)(C)C)cc1 [MS432, reference compound]",IC50,[11],32.4 nM
same,IC50,[13],176 nM
"Nc1cccc2c1C(=O)N(C1CCC(=O)NC1=O)C2=O (stereo not drawn) [pomalidomide, reference compound]",degradation of IKZF3,[14],degrade IKZF3 or IKZF1
same,IC50,[3]; 72 hours,58 nM
same,degradation of IKZF1,[6],degrade IKZF3 or IKZF1
same,degradation of IKZF3,[5],degrade IKZF3 or IKZF1
same,effect on degrading IKZF3 after depletion of endogenous CRBN E3 ubiquitin ligase,[8]; MM.1S cells,completely abolished the effect

# — patent US20230364243A1, “CANCER-SELECTIVE TARGET DEGRADATION BY TARGETING GROUP CAGED PROTACS” (Beth Israel Deaconess Medical Center, Inc., priority 2021, published 2023)
